Data from patent US7625896B2, “Pyridylsulfonamide derivatives” (Hoffman-La Roche Inc., priority 2005, dated 2009).
Structures can show the parent of a compound that is named as a salt.

tested on: HCT 116 cells; assay: Viability assay in HCT 116 cells (CellTiter-Glo Luminescent Cell Viability Assay); type: cell-based; conditions: HCT 116 human colon carcinoma cells, 5 days (120 h) incubation, 10 concentrations 30 μM to 0.0015 μM, ATP luminescence
Experimental: Viability Assay in HCT 116 Cells
A viability assay was performed using the CellTiter-Glo® Luminescent Cell Viability Assay (see Promega Corporation's Technical Bulletin No. 288, pp. 1-11 [revised February 2004] which is hereby incorporated by reference in its entirety). This assay is a homogeneous method of determining the number of viable cells in culture based on quantitation of the ATP present, an indicator of metabolically active cells. The assay is designed for use with multiwell formats, making it ideal for automated high-throughput screening (HTS), cell proliferation and cytotoxicity assays. The homogeneous assay procedure involves adding a single reagent (containing luciferase, luciferan substrate, and buffer) directly to cells cultured in serum-supplemented medium. Cell washing, removal of medium and multiple pipetting steps are not required. The system detects as few as 15 cells/well in a 384-well format in 10 minutes after adding reagent and mixing.
The homogeneous “add-mix-measure” format results in cell lysis and generation of a luminescent signal proportional to the amount of ATP present. The amount of ATP is directly proportional to the number of cells present in culture. The above-referenced assay generates a “glow-type” luminescent signal, produced by the luciferase reaction, which has a half-life generally greater than five hours, depending on cell type and medium used. The extended half-life eliminates the need to use reagent injectors and provides flexibility for continuous or batch mode processing of multiple plates. The unique homogeneous format avoids errors that may be introduced by other ATP measurement methods that require multiple steps.
HCT 116 cells (human colon carcinoma, ATCC-No. CCl-247) were cultivated in RPMI 1640 medium with GlutaMAX™ I (cell culture media that contains L-Alanyl-L-Glutamine [a stabilized form/source of L-Glutamine] from Invitrogen, Cat-No. 61870-010), 5% Fetal Calf Serum (FCS, Sigma Cat-No. F4135 (FBS)); 100 Units/ml penicillin/100 μg/ml streptomycin (=Pen/Strep from Invitrogen Cat. No. 15140). For the assay the cells were seeded in 384 well plates, 1000 cells per well, in the same medium. The next day the test compounds were added in various concentrations ranging from 30 μM to 0.0015 μM (10 concentrations, 1:3 diluted). After 5 days the viability assay was performed according to the instructions of the manufacturer. In brief: the cell-plate was equilibrated to room temperature for approximately 30 minutes and then the reagent (containing luciferase, luciferan substrate, and buffer) was added. The contents were carefully mixed for 15 minutes to induce cell lysis. After 45 minutes the luminescent signal was measured in Victor 2, (scanning multiwell spectrophotometer, Wallac).
1st. Day: • Medium: RPMI 1640 with GlutaMAX™ I (Invitrogen, Cat-No. 61870), 5% FCS (Sigma Cat.-No. F4135), Pen/Strep (Invitrogen, Cat No. 15140). • HCT116 (ATCC-No. CCl-247): 1000 cells in 60 μl per well of 384 well plate (Greiner 781098, μClear-plate white) • After seeding incubate plates 24 h at 37° C., 5% CO2
2nd. Day: Induction (Treatment with Compounds, 10 Concentrations):
In order to achieve a final concentration of 30 μM as highest concentration 3.5 μl of 10 mM compound stock solution were added directly to 163 μl media. Then step e) of the dilution procedure described below, was followed.

SMILES | IC50
O=C(NS(=O)(=O)c1ccc(N2CCOCC2)nc1)c1ccc(Cl)cc1Cl [Example 1-1, 6-morpholin-4-yl-pyridine-3-sulfonic acid 2,4-dichloro-benzoylamide; sodium salt] | 1 to 16 µM
Cc1cc(Cl)ccc1C(=O)NS(=O)(=O)c1ccc(N2CCOCC2)nc1 [Example 1-2, 6-Morpholin-4-yl-pyridine-3-sulfonic acid 4-chloro-2-methyl-benzoylamide; sodium salt] | 5.32 µM
Cc1cc(Br)ccc1C(=O)NS(=O)(=O)c1ccc(N2CCOCC2)nc1 [Example 1-3, 6-Morpholin-4-yl-pyridine-3-sulfonic acid 4-bromo-2-methyl-benzoylamide; sodium salt] | 1 to 16 µM
Cc1ccc(C(=O)NS(=O)(=O)c2ccc(N3CCOCC3)nc2)c(Br)c1 [Example 1-4, 6-Morpholin-4-yl-pyridine-3-sulfonic acid 2-bromo-4-methyl-benzoylamide; sodium salt] | 1 to 16 µM
O=C(NS(=O)(=O)c1cnc(Cl)c(Br)c1)c1ccc(Br)cc1Cl [Example 1-7, 5-Bromo-6-chloro-pyridine-3-sulfonic acid 4-bromo-2-chloro-benzoylamide; sodium salt] | 8.48 µM
O=C(NS(=O)(=O)c1cnc(Cl)c(Br)c1)c1ccc(Cl)cc1Br [Example 1-8, 5-Bromo-6-chloro-pyridine-3-sulfonic acid 2-bromo-4-chloro-benzoylamide; sodium salt] | 1 to 16 µM
O=C(NS(=O)(=O)c1ccc(N2CCOCC2)nc1)c1ccc(F)cc1Cl [Example 1-10, 6-Morpholin-4-yl-pyridine-3-sulfonic acid 2-chloro-4-fluoro-benzoylamide; sodium salt] | 1 to 16 µM
O=C(NS(=O)(=O)c1cnc(Cl)c(Br)c1)c1ccc(Cl)cc1Cl [Example 1-13, 5-Bromo-6-chloro-pyridine-3-sulfonic acid 2,4-dichloro-benzoylamide; sodium salt] | 1 to 16 µM
O=C(NS(=O)(=O)c1ccc(Oc2ccccc2)nc1)c1ccc(C(F)(F)F)cc1F [Example 1-15, 6-Phenoxy-pyridine-3-sulfonic acid 2-fluoro-4-trifluoromethyl-benzoylamide; sodium salt] | 1 to 16 µM
O=C(NS(=O)(=O)c1cnc(Cl)c(Br)c1)c1ccc(C(F)(F)F)cc1C(F)(F)F [Example 1-18, 5-Bromo-6-chloro-pyridine-3-sulfonic acid 2,4-bis-trifluoromethyl-benzoylamide; sodium salt] | 1 to 16 µM
O=C(NS(=O)(=O)c1ccc(Oc2ccccc2)nc1)c1ccc(Cl)cc1F [Example 1-20, 6-Phenoxy-pyridine-3-sulfonic acid 4-chloro-2-fluoro-benzoylamide; sodium salt] | 1 to 16 µM
O=C(NS(=O)(=O)c1ccc(Oc2ccccc2)nc1)c1ccc(F)cc1C(F)(F)F [Example 1-21, 6-Phenoxy-pyridine-3-sulfonic acid 4-fluoro-2-trifluoromethyl-benzoylamide; sodium salt] | 1 to 16 µM
O=C(NS(=O)(=O)c1cccnc1)c1ccc(Cl)cc1Cl [Example 1-24, Pyridine-3-sulfonic acid 2,4-dichloro-benzoylamide; sodium salt] | 3.17 µM
O=C(NS(=O)(=O)c1ccc(Oc2ccccc2)nc1)c1ccc(Br)cc1Cl [Example 1-28, 6-Phenoxy-pyridine-3-sulfonic acid 4-bromo-2-chloro-benzoylamide; sodium salt] | 1 to 16 µM
O=C(NS(=O)(=O)c1ccc(N2CCOCC2)nc1)c1ccc(Cl)cc1Br [Example 1-29, 6-Morpholin-4-yl-pyridine-3-sulfonic acid 2-bromo-4-chloro-benzoylamide; sodium salt] | 1 to 16 µM
O=C(NS(=O)(=O)c1ccc(Oc2ccccc2)nc1)c1ccc(Cl)cc1Br [Example 1-33, 6-Phenoxy-pyridine-3-sulfonic acid 2-bromo-4-chloro-benzoylamide; sodium salt] | 1 to 16 µM

SMILES | IC50
O=C(NS(=O)(=O)c1cccnc1)c1ccc(C(F)(F)F)cc1C(F)(F)F [Example 1-38, Pyridine-3-sulfonic acid 2,4-bis-trifluoromethyl-benzoylamide; sodium salt] | 1 to 16 µM
Cc1ccc(C(=O)NS(=O)(=O)c2ccc(Oc3ccccc3)nc2)c(Br)c1 [Example 1-40, 6-Phenoxy-pyridine-3-sulfonic acid 2-bromo-4-methyl-benzoylamide; sodium salt] | 1 to 16 µM
COc1cc(Cl)ccc1C(=O)NS(=O)(=O)c1ccc(N2CCC(OC)CC2)nc1 [Example 1-45, 4-Methoxy-3,4,5,6-tetrahydro-2H-[1,2′]bipyridinyl-5′-sulfonic acid 4-chloro-2-methoxy-benzoylamide; sodium salt] | 1 to 16 µM
COc1cc(Cl)ccc1C(=O)NS(=O)(=O)c1ccc(N2CCSCC2)nc1 [Example 1-47, 6-Thiomorpholin-4-yl-pyridine-3-sulfonic acid 4-chloro-2-methoxy-benzoylamide] | 1 to 16 µM
O=C(NS(=O)(=O)c1ccc(N2CCCCCC2)nc1)c1ccc(Cl)cc1C(F)(F)F [Example 1-49, 6-Azepan-1-yl-pyridine-3-sulfonic acid 4-chloro-2-trifluoromethyl-benzoylamide] | 1 to 16 µM
CC1CCCN(c2ccc(S(=O)(=O)NC(=O)c3ccc(Cl)cc3C(F)(F)F)cn2)C1 (centres unmarked) [Example 1-51, 3-Methyl-3,4,5,6-tetrahydro-2H-[1,2′]bipyridinyl-5′-sulfonic acid 4-chloro-2-trifluoromethyl-benzoylamide; ammonium salt] | 1 to 16 µM
CCCN(CCC)c1ccc(S(=O)(=O)NC(=O)c2ccc(Cl)cc2C(F)(F)F)cn1 [Example 1-54, 6-Dipropylamino-pyridine-3-sulfonic acid 4-chloro-2-trifluoromethyl-benzoylamide] | 1 to 16 µM
O=C(NS(=O)(=O)c1ccc(N2CCSCC2)nc1)c1ccc(Cl)cc1C(F)(F)F [Example 1-56, 6-Thiomorpholin-4-yl-pyridine-3-sulfonic acid 4-chloro-2-trifluoromethyl-benzoylamide; ammonium salt] | 1 to 16 µM
CCCCN(CC)c1ccc(S(=O)(=O)NC(=O)c2ccc(Cl)cc2C(F)(F)F)cn1 [Example 1-59, 6-(Butyl-ethyl-amino)-pyridine-3-sulfonic acid 4-chloro-2-trifluoromethyl-benzoylamide; ammonium salt] | 1 to 16 µM
CCCN(C)c1ccc(S(=O)(=O)NC(=O)c2ccc(F)cc2Cl)cn1 [Example 1-63, 6-(Methyl-propyl-amino)-pyridine-3-sulfonic acid 2-chloro-4-fluoro-benzoylamide] | 1 to 16 µM
O=C(NS(=O)(=O)c1ccc(N2CCSCC2)nc1)c1ccc(F)cc1Cl [Example 1-68, 6-Thiomorpholin-4-yl-pyridine-3-sulfonic acid 2-chloro-4-fluoro-benzoylamide] | 1 to 16 µM
O=C(NS(=O)(=O)c1ccc(N2CCCCCC2)nc1)c1ccc(Cl)cc1Cl [Example 1-69, 6-Azepan-1-yl-pyridine-3-sulfonic acid 2,4-dichloro-benzoylamide] | 1 to 16 µM
O=C(NS(=O)(=O)c1ccc(N2CCSCC2)nc1)c1ccc(Cl)cc1Cl [Example 1-71, 6-Thiomorpholin-4-yl-pyridine-3-sulfonic acid 2,4-dichloro-benzoylamide] | 1 to 16 µM
C[C@@H]1CN(c2ccc(S(=O)(=O)NC(=O)c3ccc(Cl)cc3C(F)(F)F)cn2)C[C@H](C)O1 [Example 1-72, 6-((2R,6S)-2,6-Dimethyl-morpholin-4-yl)-pyridine-3-sulfonic acid 4-chloro-2-trifluoromethyl-benzoylamide] | 1 to 16 µM
O=C(NS(=O)(=O)c1ccc(N2CCCCCC2)nc1)c1ccc(F)cc1C(F)(F)F [Example 1-78, 6-Azepan-1-yl-pyridine-3-sulfonic acid 4-fluoro-2-trifluoromethyl-benzoylamide] | 1 to 16 µM
O=C(NS(=O)(=O)c1ccc(N2CCSCC2)nc1)c1ccc(F)cc1C(F)(F)F [Example 1-80, 6-Thiomorpholin-4-yl-pyridine-3-sulfonic acid 4-fluoro-2-trifluoromethyl-benzoylamide] | 1 to 16 µM
